Series [1] in a line: Solubility of CBI in several solvents (24 h stirring at room temperature, HPLC). Format: physicochemical. The settings on record: for solubility at 24 h: organic solvent or mixture, thermodynamic from solid. As to the method: Under several solvent conditions—i.e., distilled water, methanol, ethanol, acetone and diethyl ether—the solubility of CBI was measured. Specifically, about 5 to 40 mg of CBI was introduced into a 1.5 mL microtube, and 1 mL of the test solvent was added thereto. The mixture was slowly stirred in a rotary stirrer for 24 h under the condition of room temperature until solvent equilibrium was reached. After stirring, the suspended solution was filtered through a 0.45 micrometer membrane filter. The supernatant was collected and diluted by two-fold with the same amount of diluent for analysis. The CBI concentration was analyzed by using high-performance liquid chromatography. The column used in the present experiment was a […], 5 μm C18 column, and the mobile phase was a mixture of 35% acetonitrile, 20% methanol and 45% distilled water by volume. The flow rate was 1.0 mL/min, and the detection was performed at 255 nm. The results are shown in Table 11 wherein the values are represented as an average of three repeats ±standard deviation.

The nature of series [2]: Pharmacokinetic test of the solid dispersion for a Beagle dog (oral, plasma CBI by LC-MS/MS). It counts as in vivo. The conditions noted are these: oral 40 mg/kg in gelatin capsule, all the time zones (0-24 h), listed as CBI powder. As to the method:
Just before the test, three Beagle dogs were weighed respectively. The solid dispersion of Example 3 as the test group and CBI powder as the control group each weighed in the amount corresponding to 40 mg/kg, were filled into a gelatin capsule and then orally administered. Just before and at 0.5, 1, 2, 4, 6, 8 and 24 h after administration, the blood was collected from the popliteal vein. The plasma was separated from the blood sample by centrifugation and stored/kept at −20° C. until analysis thereof. For the analysis, the plasma sample (0.5 ml) was correctly transferred to a 1.5 ml polypropylene centrifuge tube. This mixture was vortexed for 30 sec and centrifuged at 400 rpm for 10 min. The concentration of CBI in the plasma was analyzed by LC-MS/MS. […] The peak was detected by MRM (multiple reaction monitoring) method using triple-quadrupole mass spectrometry. The ionization was analyzed in the positive mode by using electrospray ionization (ESI) wherein the ion spray temperature was set up at 500° C. In the MRM method, the protonated molecular ions of CBI and the internal standard compound were monitored to have the m/z values of 325.1 and 268.0, and the product ions thus produced were monitored to have the m/z values of 91.0 and 155.0, respectively. The area under the concentration-time curve (AUC) of the drug in the plasma was calculated by the linear trapezoidal method.

Usually solubility stands for the dissolved amount per volume that the medium holds.

Values after ≈ are worked out from the molar mass of the structure shown.

Turning to `NC(=O)OCc1cc(-c2ccc(OCc3ccccc3)cc2)no1` [CBI, carbamic acid 3-(4-benzyloxy-phenyl)-isoxazol-5-ylmethyl ester], the Solubility entry in series [1] (Distilled Water) is on record as “Not detected”. The solubility at 24 h is 24.8 mg/mL (≈ 76.5 mM) in series [1] (Acetone), 0.7 mg/mL (≈ 2.16 mM) in series [1] (Diethyl Ether), 1.5 mg/mL (≈ 4.62 mM) in series [1] (Ethanol) and 2.5 mg/mL (≈ 7.71 mM) in series [1] (Methanol). In addition, the “Blood CBI Concentration” value in series [2] is listed as “below the sensitivity for quantification”.

Source of the values: patent US9724335B2, “Solid dispersions of insoluble drug and preparation method thereof” (SK BIOPHARMACEUTICALS CO., LTD., priority 2012, dated 2017).
